Our source for the TGI values is PubChem BioAssay (NCI).

SMILES strings stand for the structures.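 96-well plates; 48 h exposure; 5 concentrations. Endpoints by linear interpolation between flanking doses. Not reached: highest tested concentration assigned. Definition used: TGI = concentration required for complete inhibition of growth.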

Holding throughout (test): NCI tumour cell line growth inhibition, 48 h
The subject of test [1] is HT29 colon.
Test [2] relates to T-47D breast.
Test [3] deals with SK-MEL-28 melanoma.
For test [4], the system named is KM12 colon.
Test [5] has as its system HCT-15 colon.
Test [6] relates to HL-60(TB) leukemia.
The test system of test [7] is NCI-H522 lung.
The subject of test [8] is SK-OV-3 ovarian.
The subject of test [9] is IGROV1 ovarian.
Test [10] deals with OVCAR-8 ovarian.
The test system of test [11] is OVCAR-3 ovarian.
For test [12], the system named is MCF7 breast.
In test [13] the test system is LOX IMVI melanoma.
Test [14] relates to A549 NSCLC.
In test [15] the test system is SF-268 CNS.
Test [16] deals with A498 renal.
Test [17] concerns HCC-2998 colon.
The subject of test [18] is NCI-H23 lung.
The test system of test [19] is MDA-MB-435.
The subject of test [20] is HCT-116 colon.

For the molecule `CC(=O)c1c2c(cc3c1CC1(Cc4cc5c(cc4C1)C(=O)CCC5)C3)CCCC2` (stereo not given), the TGI in test [1] was more than 32.7 µM; in test [2], more than 81.7 µM; in test [3], 69.8 µM; in test [4] it was 78.4 µM; in [5], 19.3 µM; in test [6], 4.17 µM. For the same molecule, the TGI is 31.4 µM in test [7]; more than 100 µM in test [8]; more than 30.8 µM in test [9]; more than 80.6 µM in [10]; 54.3 µM in [11]; 18.7 µM in [12]. The TGI in [13] is more than 53.5 µM; in [14], more than 88.2 µM; in [15] it was 65 µM; in test [16], 8.95 µM; in [17], 97.9 µM; in test [18] it was more than 100 µM. The TGI is 11.4 µM in [19] and more than 47.1 µM in test [20].

For the molecule `Nc1nc(Cl)c(N)c(NCC2(CO)CCC(CCc3ccccc3)C2)n1` (stereo not given), the TGI in [1] is 29.2 µM; in [2], more than 59 µM; in test [3] it was 31.1 µM; in test [4], 28.9 µM; in test [5], 41.8 µM; in [6], 31.3 µM. Besides, the TGI was 26.3 µM in test [7]; 63.8 µM in test [8]; more than 62.4 µM in test [9]; 38.1 µM in test [10]; 50.3 µM in [11]; 34.9 µM in [12]. For the same molecule, the TGI in test [13] is 25.9 µM; in [14], more than 100 µM; in test [15], 40.2 µM; in [16] it was 49.5 µM; in test [17] it was 31.9 µM; in test [18], 28.6 µM. Also, the TGI in [19] is 27 µM; in test [20], 31.3 µM.

Consider `O=C1C(c2c(O)[nH]c3ccc(Cl)cc23)=Nc2ccccc21`, for which the TGI in [1], in test [2], in test [3], in [4], in test [5] and in test [6] was more than 100 µM each time. Besides, the TGI was more than 100 µM in test [7]; 11.2 µM in [8]; 19.3 µM in test [9]; 21.9 µM in [10]; 17.9 µM in [11]; more than 22 µM in test [12]. Besides, the TGI is more than 79.7 µM in test [13]; 20.7 µM in test [14]; 33.6 µM in test [15]; 13.1 µM in [16]; more than 26.8 µM in [17]; 40.1 µM in test [18]. The TGI is more than 100 µM in test [19] and 5.18 µM in [20].

For `C[C@H](CCC(=O)NCCS(=O)(=O)O)[C@H]1CC[C@H]2[C@@H]3[C@H](O)C[C@@H]4C[C@H](O)CC[C@]4(C)[C@H]3CC[C@]12C`, the TGI in test [1], in test [2], in test [3], in test [4], in test [5] and in test [6] was more than 100 µM each time. For the same molecule, the TGI in test [7], in test [8], in test [9], in test [10], in [11] and in test [12] was more than 100 µM in each case. The TGI in [13], in [14], in test [15], in [16], in test [17] and in test [18] was more than 100 µM throughout. In addition, the TGI in [19] and in test [20] was more than 100 µM in each case.

Consider `Cc1nc2c(O)c3c(c(O)c2nc1C)C1C=CC3CC1`, for which the TGI worked out at 55.9 µM in [1]; 7 µM in test [2]; 30.8 µM in [3]; 31.5 µM in test [4]; 34.8 µM in test [5]; 2.66 µM in [6]. Besides, the TGI in test [7] was determined as 37.5 µM; in test [8], 55.2 µM; in test [9], 17.9 µM; in test [10], 20.9 µM; in [11], 21.2 µM; in [12], 25.4 µM. Moreover, the TGI in [13] is 9.95 µM; in [14], 63.5 µM; in test [15] it was 32.9 µM; in test [16], 81.5 µM; in [17] it was more than 59.2 µM; in test [18], 26.5 µM. The results for the TGI in [19] and in test [20] were 6.2 µM and 17.3 µM, respectively.

Consider `CC[C@@H]([C@H](O)c1ccccc1Cl)[N+](=O)[O-]`, for which the TGI in test [1], in test [2], in test [3], in test [4], in test [5] and in [6] was more than 100 µM in each case. For the same molecule, the TGI in [7], in [8], in test [9], in test [10], in test [11] and in test [12] was more than 100 µM in each case. Also, the TGI in [13], in test [14], in [15], in test [16], in test [17] and in test [18] was more than 100 µM throughout. Moreover, the TGI in [19] and in [20] was more than 100 µM each time.

For `Nc1n[nH]c2c(C(=O)Nc3ccc(Cl)cc3)c(N)n(N)c(=O)c12`, the TGI in test [1], in [2], in test [3], in test [4], in test [5] and in test [6] was more than 100 µM each time. The TGI in [7], in test [8], in test [9], in test [10], in test [11] and in test [12] was more than 100 µM in each case. Further, the TGI in test [13], in test [14], in test [15], in test [16], in test [17] and in test [18] was more than 100 µM in each case. For the same molecule, the TGI in [19] and in [20] was more than 100 µM each time.
